Experimental findings from patent US10300071B2, “Compositions and methods for inhibition of mycobacteria” (priority 2014, dated 2019) are described below.

In brackets after ≈: the same amount, converted by molar mass. Like-named read-outs stand apart in the source and are kept apart here. Some results are limits rather than exact numbers.

The test system of one assay is Mtb strain mc^2-7000. Briefly: microbe, parasite or virus in culture. Format: cell-based, Mycobacterium tuberculosis. The note with it: for MIC: 6 days incubation at 37° C., resazurin, read on the 7th day.
A further assay addresses Mtb AccD6 (Mycobacterium tuberculosis, UniProt P9WQH5). Briefly: biochemical. Format: biochemical. The note with it: for IC50: 300 μM malonyl-CoA, inhibitor 10 μM to 2000 μM.
The mark [1] stands for this setting: Mycobacterium tuberculosis, 144 h, read-out: MIC.

Sequence of Mtb AccD6 (P9WQH5 whole entry, looked up): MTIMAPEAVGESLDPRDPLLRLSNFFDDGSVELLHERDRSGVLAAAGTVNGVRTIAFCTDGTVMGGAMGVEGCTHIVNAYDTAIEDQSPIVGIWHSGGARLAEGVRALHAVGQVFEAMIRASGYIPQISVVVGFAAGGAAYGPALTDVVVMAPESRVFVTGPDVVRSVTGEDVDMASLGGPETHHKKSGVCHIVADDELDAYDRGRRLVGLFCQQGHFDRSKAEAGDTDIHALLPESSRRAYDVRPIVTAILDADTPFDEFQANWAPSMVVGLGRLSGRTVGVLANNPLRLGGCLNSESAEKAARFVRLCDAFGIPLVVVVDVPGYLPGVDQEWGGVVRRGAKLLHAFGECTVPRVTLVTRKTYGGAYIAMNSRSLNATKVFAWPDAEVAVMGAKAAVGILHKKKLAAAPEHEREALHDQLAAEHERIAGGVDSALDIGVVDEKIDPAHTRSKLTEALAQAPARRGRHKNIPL

Take `CC(Oc1ccc(Oc2ncc(C(F)(F)F)cc2Cl)cc1)C(=O)O` (racemic) [haloxyfop, (RS)-2-{4-[3-chloro-5-(trifluoromethyl)-2-pyridyloxy]phenoxy}propionic acid, reference compound]: in the assay on Mtb strain mc^2-7000 (preliminary studies of commercially available herbicides), the “whole Mycobacterium tuberculosis cell inhibition” value is reported as “none exhibited whole Mycobacterium tuberculosis cell inhibition”. Turning to `CCOC(=O)[C@@H](C)Oc1ccc(Oc2nc3ccc(Cl)cc3s2)cc1` [NZ-246, ethyl (2R)-2-{4-[(6-chloro-1,3-benzothiazol-2-yl)oxy]phenoxy}propanoate], the MIC with Mtb strain mc^2-7000 (setting [1]) turned out to be 3 µM (≈ 1.13 µg/mL). The same measure, in the same setting: for `CCOC(=O)[C@@H](C)Oc1ccc(Oc2nc3ccc(Br)cc3s2)cc1` [NZ-250, ethyl (2R)-2-{4-[(6-bromo-1,3-benzothiazol-2-yl)oxy]phenoxy}propanoate] the value was 3.12 µM (≈ 1.32 µg/mL). For the molecule `CCOC(=O)[C@@H](C)Oc1ccc(Oc2nc3ccccc3s2)cc1` [NZ-252, ethyl (2R)-2-[4-(1,3-benzothiazol-2-yloxy)phenoxy]propanoate], the MIC result with Mtb strain mc^2-7000 was “Not Soluble”. The IC50 – broadly, the concentration that inhibits the measured activity by half – against Mtb AccD6 was “Not Soluble”. As to `COC(=O)COc1ccc(Oc2cnc3cc(Cl)ccc3n2)cc1` [NZ-256, methyl 2-{4-[(6-chloroquinoxalin-2-yl)oxy]phenoxy}acetate], the MIC in the assay with Mtb strain mc^2-7000 (setting [1]) stood at 1.5 µM. As for `NC(=O)COc1ccc(Oc2cnc3cc(Cl)ccc3n2)cc1` [NZ-258, 2-{4-[(6-chloroquinoxalin-2-yl)oxy]phenoxy}acetamide], the MIC in the assay on Mtb strain mc^2-7000 (setting [1]) was 50 µM (≈ 16.5 µg/mL). Moreover, the IC50 at Mtb AccD6 (read-out: IC50) lay within 2.1 to 3.1 µM.

Turning to `CS(=O)(=O)NC(=O)COc1ccc(Oc2cnc3cc(Cl)ccc3n2)cc1` [NZ-259, 2-{4-[(6-chloroquinoxalin-2-yl)oxy]phenoxy}-N-methanesulfonylacetamide], the MIC in the assay with Mtb strain mc^2-7000 (setting [1]) is over 50 µM. Further, the IC50 at Mtb AccD6 (read-out: IC50) was 1.6 to 2.6 µM. Regarding `CCOC(=O)[C@@H](C)Oc1ccc(Oc2nc3ccc([N+](=O)[O-])cc3s2)cc1` [NZ-260, ethyl (2R)-2-{4-[(6-nitro-1,3-benzothiazol-2-yl)oxy]phenoxy}propanoate], the MIC in the assay with Mtb strain mc^2-7000 (setting [1]) lay within 0.19 to 2.3 µM (≈ 0.0738 to 0.893 µg/mL). With `CN(C)C(=O)COc1ccc(Oc2cnc3cc(Cl)ccc3n2)cc1` [NZ-262, 2-{4-[(6-chloroquinoxalin-2-yl)oxy]phenoxy}-N,N-dimethylacetamide], in the assay on Mtb strain mc^2-7000 (setting [1]), the MIC was over 25 µM. Moreover, at Mtb AccD6 (read-out: IC50), the IC50 is 1.8 µM. For `N#CCOc1ccc(Oc2cnc3cc(Cl)ccc3n2)cc1` [NZ-263, 2-{4-[(6-chloroquinoxalin-2-yl)oxy]phenoxy}acetonitrile], the MIC in the assay on Mtb strain mc^2-7000 (setting [1]) was over 50 µM. In addition, the IC50 at Mtb AccD6 (read-out: IC50) was found to be 7.8 µM. Turning to `CC(O)COc1ccc(Oc2cnc3cc(Cl)ccc3n2)cc1` (centres unmarked) [NZ-264, 1-{4-[(6-chloroquinoxalin-2-yl)oxy]phenoxy}propan-2-ol], in the assay with Mtb strain mc^2-7000 (setting [1]), the MIC is over 12.5 µM. Also, the IC50 at Mtb AccD6 (read-out: IC50) is 3.4 µM. Turning to `O=C(COc1ccc(Oc2cnc3cc(Cl)ccc3n2)cc1)N1CCCCC1` [NZ-265, 2-{4-[(6-chloroquinoxalin-2-yl)oxy]phenoxy}-1-(piperidin-1-yl)ethan-1-one], in the assay on Mtb strain mc^2-7000 (setting [1]), the MIC came to 3 µM (≈ 1.19 µg/mL). Moreover, the half-inhibitory concentration (IC50) at Mtb AccD6 (read-out: IC50) is 0.57 µM.

Regarding `O=C(COc1ccc(Oc2cnc3cc(Cl)ccc3n2)cc1)N1CCOCC1` [NZ-266, 2-{4-[(6-chloroquinoxalin-2-yl)oxy]phenoxy}-1-(morpholin-4-yl)ethan-1-one], the MIC in the assay on Mtb strain mc^2-7000 (setting [1]) was over 12.5 µM. Moreover, the half-maximal inhibitory concentration (IC50) on Mtb AccD6 (read-out: IC50) was 0.99 µM. Regarding `CNC(=O)COc1ccc(Oc2cnc3cc(Cl)ccc3n2)cc1` [NZ-267, 2-{4-[(6-chloroquinoxalin-2-yl)oxy]phenoxy}-N-methylacetamide], in the assay with Mtb strain mc^2-7000 (setting [1]), the MIC was over 25 µM. Also, the IC50 on Mtb AccD6 (read-out: IC50) was found to be 2.4 µM. Turning to `Clc1ccc2nc(Oc3ccc(OCc4nnn[nH]4)cc3)cnc2c1` [NZ-268, 6-chloro-2-[4-(1H-1,2,3,4-tetrazol-5-ylmethoxy)phenoxy]quinoxaline], the MIC with Mtb strain mc^2-7000 (setting [1]) is over 12.5 µM. Moreover, the half-maximal inhibitory concentration (IC50) at Mtb AccD6 (read-out: IC50) was determined as 1.7 µM. The corresponding values for `Cn1nnnc1COc1ccc(Oc2cnc3cc(Cl)ccc3n2)cc1` [NZ-270, 6-chloro-2-{4-[(1-methyl-1H-1,2,3,4-tetrazol-5-yl)methoxy]phenoxy}quinoxaline] are over 50 µM and 9.7 µM. In the same order, the values of `Clc1ccc2nc(Oc3ccc(OCc4ncco4)cc3)cnc2c1` [NZ-271, 6-chloro-2-[4-(1,3-oxazol-2-ylmethoxy)phenoxy]quinoxaline] are over 50 µM and 11.6 µM. In the case of `CCOC(COc1ccc(Oc2cnc3cc(Cl)ccc3n2)cc1)OCC` [NZ-272, 6-chloro-2-[4-(2,2-diethoxyethoxy)phenoxy]quinoxaline], the MIC with Mtb strain mc^2-7000 (setting [1]) was over 12.5 µM. For the same molecule, the 50% inhibitory concentration (IC50) at Mtb AccD6 (read-out: IC50) was 5.8 µM. The corresponding values for `Clc1ccc2nc(Oc3ccc(OCc4ncc[nH]4)cc3)cnc2c1` [NZ-273, 6-chloro-2-[4-(1H-imidazol-2-ylmethoxy)phenoxy]quinoxaline] are over 25 µM and 7.9 µM. On to `O=C(COc1ccc(Oc2cnc3cc(Cl)ccc3n2)cc1)NS(=O)(=O)C(F)(F)F` [NZ-275, 2-{4-[(6-chloroquinoxalin-2-yl)oxy]phenoxy}-N-trifluoromethanesulfonylacetamide], for which, in the assay on Mtb strain mc^2-7000 (setting [1]), the MIC was determined as 12.5 µM (≈ 5.77 µg/mL). Besides, on Mtb AccD6 (read-out: IC50), the 50% inhibitory concentration (IC50) came out at 3.8 µM.

Take `O=C(COc1ccc(Oc2cnc3cc(Cl)ccc3n2)cc1)NS(=O)(=O)c1ccccc1` [NZ-276, N-(benzenesulfonyl)-2-{4-[(6-chloroquinoxalin-2-yl)oxy]phenoxy}acetamide]: the MIC in the assay with Mtb strain mc^2-7000 (setting [1]) was 3.1 µM (≈ 1.46 µg/mL). On Mtb AccD6 (read-out: IC50), the half-maximal inhibitory concentration (IC50) worked out at 7.3 µM. The corresponding values for `O=C(COc1ccc(Oc2cnc3cc(Cl)ccc3n2)cc1)N1CCNCC1` [NZ-277, 2-{4-[(6-chloroquinoxalin-2-yl)oxy]phenoxy}-1-(piperazin-1-yl)ethan-1-one] are 12.5 µM (≈ 4.99 µg/mL) and 5.6 µM. The corresponding values for `CN1CCN(C(=O)COc2ccc(Oc3cnc4cc(Cl)ccc4n3)cc2)CC1` [NZ-278, 2-{4-[(6-chloroquinoxalin-2-yl)oxy]phenoxy}-1-(4-methylpiperazin-1-yl)ethan-1-one] are 3.1 µM (≈ 1.28 µg/mL) and 1.1 µM. For the molecule `CN(O)C(=O)COc1ccc(Oc2cnc3cc(Cl)ccc3n2)cc1` [NZ-279, 2-{4-[(6-chloroquinoxalin-2-yl)oxy]phenoxy}-N-hydroxy-N-methylacetamide], in the assay with Mtb strain mc^2-7000 (setting [1]), the MIC was over 50 µM. Besides, on Mtb AccD6 (read-out: IC50), the IC50 worked out at 0.8 µM. As to `COC(=O)CCc1ccc(Oc2nc3ccc(Cl)cc3s2)cc1` [NZ-280, methyl 3-{4-[(6-chloro-1,3-benzothiazol-2-yl)oxy]phenyl}propanoate], the MIC with Mtb strain mc^2-7000 (setting [1]) stood at 6 µM (≈ 2.09 µg/mL). The inhibition (usually how much of the control response was suppressed) at 20 µM on Mtb AccD6 (read-out: inhibition at 20 uM) was determined as 50%. Turning to `COC(=O)/C=C/c1ccc(Oc2nc3ccc(Cl)cc3s2)cc1` [NZ-281, methyl (2E)-3-{4-[(6-chloro-1,3-benzothiazol-2-yl)oxy]phenyl}prop-2-enoate], the MIC with Mtb strain mc^2-7000 (setting [1]) came to 50 µM (≈ 17.3 µg/mL). Also, the inhibition at 20 µM on Mtb AccD6 (read-out: inhibition at 20 uM) worked out at 30%.

With `O=C(O)CCc1ccc(Oc2nc3ccc(Cl)cc3s2)cc1` [NZ-282, 3-{4-[(6-chloro-1,3-benzothiazol-2-yl)oxy]phenyl}propanoic acid], in the assay on Mtb strain mc^2-7000, the MIC result is recorded as “Not Active”. Further, on Mtb AccD6 (read-out: inhibition at 20 uM), the inhibition at 20 µM was found to be 40%. Regarding `O=C(O)/C=C/c1ccc(Oc2nc3ccc(Cl)cc3s2)cc1` [NZ-283, (2E)-3-{4-[(6-chloro-1,3-benzothiazol-2-yl)oxy]phenyl}prop-2-enoic acid], the MIC in the assay with Mtb strain mc^2-7000 (setting [1]) came out at 12 µM (≈ 3.98 µg/mL). Further, the inhibition at 20 µM on Mtb AccD6 (read-out: inhibition at 20 uM) is 33%. Take `COC(=O)c1ccc(Oc2nc3ccc(Cl)cc3s2)cc1` [NZ-285, methyl 4-[(6-chloro-1,3-benzothiazol-2-yl)oxy]benzoate]: in the assay with Mtb strain mc^2-7000 (setting [1]), the MIC was 12 µM (≈ 3.84 µg/mL). Moreover, the IC50 result at Mtb AccD6 is on record as “Not Active”. As to `O=C(COc1ccc(Oc2cnc3cc(Cl)ccc3n2)cc1)NO` [NZ-286, 2-{4-[(6-chloroquinoxalin-2-yl)oxy]phenoxy}-N-hydroxyacetamide], in the assay on Mtb strain mc^2-7000 (setting [1]), the MIC worked out at 3 µM (≈ 1.04 µg/mL). Also, the IC50 on Mtb AccD6 (read-out: IC50) came to 1.4 µM. Turning to `O=C(O)c1ccc(Oc2nc3ccc(Cl)cc3s2)cc1` [NZ-288, 4-[(6-chloro-1,3-benzothiazol-2-yl)oxy]benzoic acid], the MIC with Mtb strain mc^2-7000 (setting [1]) was 25 µM (≈ 7.64 µg/mL). Moreover, the IC50 on Mtb AccD6 (read-out: IC50) came to 12 µM.

Take `Cc1cccc(Oc2nc3ccc(Cl)cc3s2)c1` [NZ-291, 6-chloro-2-(3-methylphenoxy)-1,3-benzothiazole]: in the assay on Mtb strain mc^2-7000 (setting [1]), the MIC is 25 µM (≈ 6.89 µg/mL). In addition, on Mtb AccD6 (read-out: inhibition at 20 uM), the inhibition at 20 µM turned out to be 30%. On to `Clc1ccc2nc(Oc3ccccc3)sc2c1` [NZ-292, 6-chloro-2-phenoxy-1,3-benzothiazole], for which the MIC in the assay on Mtb strain mc^2-7000 (setting [1]) was 12 µM (≈ 3.14 µg/mL). In addition, the inhibition at 20 µM on Mtb AccD6 (read-out: inhibition at 20 uM) is 42%.

As for `COC(=O)Cc1ccc(Oc2nc3ccc(Cl)cc3o2)cc1` [NZ-302, methyl 2-{4-[(6-chloro-1,3-benzoxazol-2-yl)oxy]phenyl}acetate], the MIC in the assay on Mtb strain mc^2-7000 (setting [1]) came out at 3 µM. Also, the inhibition at 20 µM on Mtb AccD6 (read-out: inhibition at 20 uM) worked out at 50%. As to `CONC(=O)Nc1ccc(Oc2cnc3cc(Cl)ccc3n2)cc1` [NZ-344, 1-{4-[(6-chloroquinoxalin-2-yl)oxy]phenyl}-3-methoxyurea], the MIC in the assay on Mtb strain mc^2-7000 (setting [1]) is 25 µM (≈ 8.62 µg/mL). Further, at Mtb AccD6 (read-out: IC50), the concentration for half-maximal inhibition (IC50) is 4.1 µM. For `CC(C)NC(=O)Cc1ccc(Oc2nc3cc(F)c(F)cc3s2)cc1` [NZ-403, 2-{4-[(5,6-difluoro-1,3-benzothiazol-2-yl)oxy]phenyl}-N-(propan-2-yl)acetamide], the MIC in the assay on Mtb strain mc^2-7000 (setting [1]) worked out at 1.24 µM (≈ 0.449 µg/mL). At Mtb AccD6 (read-out: IC50), the IC50 came to 0.16 µM. Consider `CC(C)NC(=O)Cn1ccc(Oc2nc3ccc(Cl)cc3s2)cc1=O` [NZ-404, 2-{4-[(6-chloro-1,3-benzothiazol-2-yl)oxy]-2-oxo-1,2-dihydropyridin-1-yl}-N-(propan-2-yl)acetamide], for which, in the assay with Mtb strain mc^2-7000 (50 uM), the “% at 50 uM” value is 38% at 50 uM. For the same molecule, at Mtb AccD6 (read-out: IC50), the IC50 was 14.4 µM. As for `CC(C)NC(=O)Nc1ccc(Oc2nc3ccc(Cl)cc3s2)cn1` [WuXi-N8, 1-{5-[(6-chloro-1,3-benzothiazol-2-yl)oxy]pyridin-2-yl}-3-(propan-2-yl)urea], the inhibition at 20 µM is 40% at Mtb AccD6 (20 uM, pH 8.0, read-out: inhibition at 20 uM- pH 8.0) and 47% on Mtb AccD6 (20 uM, pH 8.5, read-out: inhibition at 20 uM- pH 8.5).
